Results: US7557085B2, “Metabolic-based methods for modulating gene expression” (Wisconsin Alumni Research Foundation, priority 2005, dated 2009)
Where two headings read alike, the source gives them in different places. Values belong to the compound of their own block, whether it stands above or below them.

Tests used:
NRSF mediated repression = test: gal4-NRSF luciferase reporter (G5-TATA-Luc) in JTC-19 cells; format: cell-based, rat
CtBP2 binding to NRSF [1] = target: T1, CtBP2 binding to NRSF (Homo sapiens, UniProt P56545); test: binding of recombinant 6x-HIS-CtBP2 to immunopurified MYC-tagged NRSF with NADH; conditions: recombinant CtBP2 pre-incubated with NADH
T1 construct: made in house
Description: Immunoprecipitation experiments were performed to examine CtBP2/NRSF binding and the effect of increasing NADH concentration on such binding. In these experiments, soluble recombinant 6×-HIS-tagged CtBP2 (produced using the Qiagen Expression System, Qiagen, Valencia, Calif., according to the manufacturer's instructions) was pre-incubated with indicated concentrations of NADH and then added to immunopurified, antibody and bead bound MYC-tagged NRSF protein (Roopra et al., 2000, Id.) while maintaining the appropriate NADH concentration. The resulting complexes were harvested, washed and subjected to Western blot analysis with an antibody to the 6×-HIS tag on CtBP2 (Qiagen). CtBP2 binding to NRSF is abrogated in the presence of NADH, showing that the NRSF-CtBP2 interaction is sensitive to NADH concentration.

CtBP2 binding to NRSF [2] = target: T2, CtBP2 binding to NRSF (Mus musculus, UniProt P56546); test: immunoprecipitation of MYC-NRSF with KT3-CtBP2 from HEK cells at NADH concentrations
T2 construct: expressed in transfected cells; host or cells: HEK-293 cells
T2 sequence (P56546 whole entry): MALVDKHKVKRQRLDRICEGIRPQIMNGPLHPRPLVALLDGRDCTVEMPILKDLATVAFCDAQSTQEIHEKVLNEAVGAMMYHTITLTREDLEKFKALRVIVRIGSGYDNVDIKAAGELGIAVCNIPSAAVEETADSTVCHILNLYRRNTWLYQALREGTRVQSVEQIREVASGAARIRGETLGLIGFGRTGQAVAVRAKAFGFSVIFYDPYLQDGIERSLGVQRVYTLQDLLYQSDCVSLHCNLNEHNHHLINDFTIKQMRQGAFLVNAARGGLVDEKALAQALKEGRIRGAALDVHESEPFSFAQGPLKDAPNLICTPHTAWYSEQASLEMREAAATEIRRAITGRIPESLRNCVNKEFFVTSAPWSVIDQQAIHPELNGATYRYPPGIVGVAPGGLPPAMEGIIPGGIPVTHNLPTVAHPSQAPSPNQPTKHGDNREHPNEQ
Description: Protein was harvested, incubated with the indicated concentrations of NADH and immunoprecipitated with anti-KT3 antibody or anti-Jun antibody as sham. Immune complexes were subjected to Western blot analysis with anti-MYC antibody.
As NADH concentrations regulate CtBP2 binding to a number of transcription factors (see Zhang et al., 2002, Id.; Mirnezami et al., 2003, Id.; Kim et al., 2005, Nat Struct Mol Biol 12: 423-8) and the non-NADH binding G189A CtBP mutant abolishes metabolic sensitivity of NRSF function, CtBP2 binding to NRSF was tested as a function of NADH concentration. In these experiments, HEK cells were co-transfected with plasmids expressing MYC-tagged NRSF or KT3-tagged CtBP2 as described above. Protein was harvested, incubated with NADH at concentrations from 0-1000 nM and immunoprecipitated with anti-KT3 antibody or anti-Jun antibody as sham. Immune complexes were subjected to Western blot analysis using an anti-MYC antibody conjugated with horseradish peroxidase as described above and in Roopra et al. (2004, Id.). […] Half maximal binding occurred at a physiologically relevant concentrations of ˜70 nM (data not shown).

SMILES: [Cl-].[Cl-].[Co+2] [CoCl2, reference compound]
repression of luciferase reporter gene expression by NRSF (fold repression gal4 DBD/gal4-NRSF) (NRSF mediated repression): decreased repression

CtBP2 binding to NRSF (CtBP2 binding to NRSF [1]): abrogated
IC50 (CtBP2 binding to NRSF [2]; HEK cell protein incubated with NADH 0-1000 nM, data not shown, read-out: NADH concentration of half maximal binding of CtBP to NRSF): ~70 nM
effect on binding of CtBP to NRSF (CtBP2 binding to NRSF [2]; increasing concentrations of NADH, 0-1000 nM, dose dependent): disrupted binding
SMILES: NC(=O)C1=CN([C@@H]2O[C@H](COP(=O)(O)OP(=O)(O)OC[C@H]3O[C@@H](n4cnc5c(N)ncnc54)[C@H](O)[C@@H]3O)[C@@H](O)[C@H]2O)C=CC1 [NADH]

SMILES: O=C(O)CC(O)(CC(=O)O)C(=O)O [citrate, reference compound]
repression of luciferase reporter gene expression by NRSF (fold repression gal4 DBD/gal4-NRSF) (NRSF mediated repression; JTC-19 cells, 16 hrs): increased repression
